Marks after values point to notes of the source that are not given here.
Legend:
[1] = system: wild possums; assay: Palatability of treated baits at possum-specific bait stations; assay type: in vivo, Trichosurus vulpecula
Text: (§1) To determine the palatability of baits to wild possums and wild rats, possum-specific bait stations and rat-specific bait stations were established in bush-pasture margin and forest habitats (see FIG. 1 and FIG. 2).
The possum-specific bait station (FIG. 1) is mounted on an elevated wire stake 4 with bait 2 attached in a perforated bag 1 at top of wire 4. A plastic disc 3 is used to stop rodents (not shown) climbing wire 4 has plasticine (not shown) on it to record animal activity.
(§2) The bait stations (FIGS. 1 and 2) enable determination of the response of possums or rats to bait 2. Plasticine 5 is used to record the presence (e.g. footprints, claw marks, bite marks) and species of animal present at the bait station.
(§3) In this example the repellence of neem (a known repellent), lime (a known repellent), anthraquinone and d-pulegone (compounds of the present invention) in cereal, carrot and paste baits are tested on wild possums and rats.
(§4) The following bait treatments are compared: • standard (solution of dye+water+0.1% cinnamon oil) • cinnamamide (solution of dye+water+0.5% cinnamamide) • neem (solution of dye+water+2% neem oil) • lime (solution of dye+water+2% agricultural lime) • anthraquinone (solution of dye+water+0.75% anthraquinone formulation). • d-pulegone (solution of dye+water+1% d-pulegone) • salt (solution of dye+water+salt (10% of total bait weight))
(§5) Treatments are applied to the cereal and carrot bait surface at a rate of 10% of total bait weight. The treatments are applied to the paste bait by mixing the solution through the bait, again at a rate of 10% of total bait weight.
(§6) The treatments are placed on the bait stations as described above and possum and rat activity measured.
(§7) The following bait treatments were compared (only carrot baits are compared): • standard (solution of dye+water+0.1% cinnamon oil) • anthraquinone 1 (solution of dye+water+1% anthraquinone formulation) • anthraquinone 2 (solution of dye+water+2% anthraquinone formulation) • d-pulegone 1 (solution of dye+water+1% d-pulegone) • d-pulegone 2 (solution of dye+water+2% d-pulegone) • combination 1 (solution of dye+water+1% anthraquinone formulation+1% d-pulegone) • combination 2 (solution of dye+water+2% anthraquinone formulation+2% d-pulegone) • salt (solution of dye+water+salt (10% of total bait weight))
(§8) All quantities given in percent by weight and all bait treatment, bait station set-up and subsequent measurement are as described in Example 1.

[2] = system: wild sparrows; assay: Sparrow feed table dose response and combination test on treated wheat (Example 7); assay type: in vivo; settings: FIGS. 6-8; result in words
Text: Wild sparrow tests were used to determine the effect of the individual repellency compared with the combination repellency.
On sparrow feed tables, sparrows were offered a choice between control wheat and three doses of repellent treated wheat.

[3] = system: rats; settings: Day et al, 2000; cited from earlier work
[4] = system: brushtail possums; settings: Day et al, 2000; cited from earlier work
[5] = system: house sparrows; assay: Sparrow treated wheat choice test, 4-day periods (Example 8, Experiment 1); assay type: in vivo, Passer domesticus; settings: mean daily percentage of wheat eaten over 4-day test periods; choice with plain wheat
Experimental: The feeding behavior of free-ranging house sparrows (Passer domesticus) presented wheat treated with anthraquinone paired with either a novel visual cue (blue dye), cinnamon oil (containing primarily olfactory cues), or d-pulegone (containing olfactory and taste cues), was recorded, to determine the suitability of repellent combinations for preventing non-target birds from consuming pesticides or other harmful substances.
Eight independent populations of house sparrows, were trained to eat plain hulled wheat from four identical food trays on feed tables.
In Experiment 1, sparrows were presented, for 4-day periods, with a choice between plain wheat, anthraquinone treated wheat, and two of the remaining repellent combinations (anthraquinone and cinnamon oil, anthraquinone and blue dye, anthraquinone and d-pulegone (at 0.5% wt or 2.0% wt concentrations)) until all sparrow populations had been exposed to each repellent.
The consumption of plain wheat and anthraquinone treated wheat was compared to the consumption of the repellent combinations every 24 hr.

[6] = system: wild rats; assay: Palatability of treated baits at rat-specific bait stations; assay type: in vivo, Rattus spp.
Experimental: as §1
The rat-specific bait station (FIG. 2) is an approximately 60 mm diameter tube 6 with bait 2 placed in the centre and tube 6 is pinned to ground with holding stake 4. Plasticine 5 is added at either end of the tube 6 to record animal activity.
as §2, §3, §4, §5, §6, §7, §8

[7] = system: several bird species; settings: 1% w/w concentration; including European starlings and northern bobwhites; cited from earlier work
[8] = Example 1, by bait treatment (cereal, carrot, paste baits), first exposure
[9] = Example 1, by bait treatment, first exposure
[10] = Example 1, by bait treatment, subsequent exposures
[11] = Example 2, carrot baits, first exposure
[12] = Example 2, carrot baits, subsequent exposures

Molecule | Proportion of bait stations left untouched [1, 8] | Proportion of bait stations with bait eaten when encountered [1, 9] | Proportion of bait stations left untouched [1, 10] | Proportion of bait stations with bait eaten when encountered [1, 10] | Amount of wheat eaten by sparrows relative to control wheat or single repellents [2] | Acceptance of treated baits by rats / wild rodents [3] | Acceptance of treated baits by possums [4] | Proportion of bait stations eaten when encountered [6, 9] | Proportion of bait stations left untouched [6, 9] | Proportion of bait stations eaten when encountered [6, 10] | Proportion of bait stations left untouched [6, 10] | further results
O=C1c2ccccc2C(=O)c2ccccc21 [Anthraquinone] | 0.67 | 0.80 | 0.35 | 1.00 | reduced the amount of wheat eaten by sparrows on days 3 and 4 | readily take anthraquinone treated baits from bait stations | readily eaten by possums | 1.00 | 0.64 | 0.65 | 0.57 | Wheat consumption, percentage of that offered [5]: 54%
CC(C)=C1CC[C@@H](C)CC1=O [d-pulegone, d-Pulegone] | 0.52 | 0.87 | 0.30 | 0.98 | reduced the quantity of wheat eaten by sparrows on days 1, 3 and 4 | readily take carrot baits | readily take carrot baits | 0.70 | 0.63 | 0.75 | 0.55 | Repellence of birds [7]: repel several bird species
NC(=O)C=Cc1ccccc1 [Cinnamamide, cinnamamide] | 0.55 | 0.71 | 0.29 | 0.95 |  |  |  | 0.67 | 0.77 | 0.70 | 0.66 | 
Salt | 0.37 | 0.30 | 0.29 | 0.38 |  |  |  | 0.00 | 0.86 | 0.16 | 0.72 | Proportion of bait stations eaten when encountered [1, 11]: 1.00; Proportion of bait stations left untouched [1, 11]: 0.82; Proportion of bait stations eaten when encountered [1, 12]: 0.43*; Proportion of bait stations left untouched [1, 12]: 0.30*; Proportion of bait stations eaten when encountered [6, 11]: 0.22; Proportion of bait stations left untouched [6, 11]: 0.18; Proportion of bait stations eaten when encountered [6, 12]: 0.33*; Proportion of bait stations left untouched [6, 12]: 0.50

From US20050186237A1, “Bird repellent” (priority 2002, published 2005)
